The molecules below were run against T1, glutaminase (GAC) (Homo sapiens, UniProt O94925) (assay: Glutaminase coupled endpoint enzymatic assay (Example A)). Settings: inhibition of glutaminase; assay of Example A or Example B.
T1 sequence (O94925 55-598 isoform O94925-3 limits assumed): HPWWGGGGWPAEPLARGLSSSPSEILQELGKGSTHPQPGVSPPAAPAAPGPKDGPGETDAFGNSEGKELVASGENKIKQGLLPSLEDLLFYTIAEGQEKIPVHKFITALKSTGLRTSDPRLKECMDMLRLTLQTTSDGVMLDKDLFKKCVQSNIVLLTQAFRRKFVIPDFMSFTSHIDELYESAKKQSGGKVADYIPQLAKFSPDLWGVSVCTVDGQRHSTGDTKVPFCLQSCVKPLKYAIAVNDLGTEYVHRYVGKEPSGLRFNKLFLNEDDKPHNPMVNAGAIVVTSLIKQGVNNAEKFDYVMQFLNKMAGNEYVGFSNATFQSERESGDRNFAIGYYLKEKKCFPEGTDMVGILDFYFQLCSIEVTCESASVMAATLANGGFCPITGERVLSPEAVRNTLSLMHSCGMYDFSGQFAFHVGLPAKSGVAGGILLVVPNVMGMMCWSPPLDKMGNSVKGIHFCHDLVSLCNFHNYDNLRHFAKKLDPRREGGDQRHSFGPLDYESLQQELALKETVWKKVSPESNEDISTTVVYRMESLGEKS
Assay type: biochemical
Procedure, shortened: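 Endpoint coupled assay: glutamate formed by GAC drives GDH NADH production, recycled by diaphorase reducing resazurin to fluorescent resorufin (Ex544/Em590) after SDS stop. Buffer pH 8.5 with phosphate; glutamine at Km; enzyme preincubated with compound 60 min at room temperature.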

**Q.** With O=C(Cc1cccc(N2CCC2)n1)Nc1nnc([C@H]2CCC[C@H](c3nnc(NC(=O)Cc4cccc(N5CCC5)n4)s3)C2)s1 [Compound 267, N,N′-(5,5′-((1S,3S)-cyclohexane-1,3-diyl)bis(1,3,4-thiadiazole-5,2-diyl))bis(2-(6-(azetidin-1-yl)pyridin-2-yl)acetamide)] as the molecule, how does the IC50 read?
**A.** 100 to 500 nM

**Q.** Which IC50 does the source give for CC(=O)Nc1nnc([C@H]2CCC[C@H](c3nnc(NC(C)=O)s3)C2)s1 [Compound 12, N,N′-(5,5′-((1S,3S)-cyclohexane-1,3-diyl)bis(1,3,4-thiadiazole-5,2-diyl))diacetamide] here?
**A.** 500 to 1000 nM

**Q.** For COc1ccccc1CC(=O)Nc1nnc([C@H]2CCC[C@H](c3nnc(NC(C)=O)s3)C2)s1 [Compound 94, N-(5-((1S,3S)-3-(5-acetamido-1,3,4-thiadiazol-2-yl)cyclohexyl)-1,3,4-thiadiazol-2-yl)-2-(2-methoxyphenyl)acetamide], which IC50 is on record?
**A.** < 100 nM

**Q.** How did the IC50 turn out when O=C(Cc1cccc(N2CC(O)C2)n1)Nc1nnc([C@H]2CCC[C@H](c3nnc(NC(=O)Cc4cccc(N5CC(O)C5)n4)s3)C2)s1 [Compound 249, N,N′-(5,5′-((1S,3S)-cyclohexane-1,3-diyl)bis(1,3,4-thiadiazole-5,2-diyl))bis(2-(6-(3-hydroxyazetidin-1-yl)pyridin-2-yl)acetamide)] was run?
**A.** < 100 nM

**Q.** How did the IC50 turn out when N#Cc1cccc(CC(=O)Nc2nnc(C3CCC(c4nnc(NC(=O)Cc5cccc(C#N)c5)s4)C3)s2)c1 (stereo not shown) [Compound 97] was run?
**A.** 100 to 500 nM

**Q.** Which IC50 does the source give for Cn1cc(CC(=O)Nc2nnc([C@@H]3CCC[C@H](c4nnc(NC(=O)Cc5cn(C)c6ccccc56)s4)C3)s2)c2ccccc21 [Compound 15, N,N′-(5,5′-((1R,3S)-cyclohexane-1,3-diyl)bis(1,3,4-thiadiazole-5,2-diyl))bis(2-(1-methyl-1H-indol-3-yl)acetamide)] here?
**A.** 500 to 1000 nM

**Q.** For O=C(Cc1ccccn1)Nc1nnc([C@@H]2CC[C@H](c3nnc(NC(=O)Cc4ccccn4)s3)C2)s1 [Compound 32], which IC50 is on record?
**A.** 500 to 1000 nM

**Q.** O=C(Cc1ccccc1)Nc1nnc(CC2CC(Cc3nnc(NC(=O)Cc4ccccc4)s3)C2)s1 (stereo not shown) [Compound 8, N,N′-(5,5′-(cyclobutane-1,3-diylbis(methylene))bis(1,3,4-thiadiazole-5,2-diyl))bis(2-phenylacetamide)] was tested. Which IC50 did it give?
**A.** 100 to 500 nM

**Q.** For CN1CCN(c2cccc(CC(=O)Nc3nnc([C@H]4CCC[C@H](c5nnc(NC(=O)Cc6cccc(N7CCN(C)CC7)c6)s5)C4)s3)c2)CC1 [Compound 259], which IC50 is on record?
**A.** 100 to 500 nM

**Q.** For O=C(Cc1ccccn1)Nc1nnc(CC2CCC(Cc3nnc(NC(=O)Cc4ccccn4)s3)C2)s1 (stereo not shown) [Compound 4, N,N′-(5,5′-(cyclopentane-1,3-diylbis(methylene))bis(1,3,4-thiadiazole-5,2-diyl))bis(2-(pyridin-2-yl)acetamide)], which IC50 is on record?
**A.** 2000 to 10000 nM

**Q.** Which IC50 does the source give for Nc1cccc(CC(=O)Nc2nnc([C@H]3CCC[C@H](c4nnc(NC(=O)Cc5cccc(N)n5)s4)C3)s2)n1 [Compound 232, N,N′-(5,5′-((1S,3S)-cyclohexane-1,3-diyl)bis(1,3,4-thiadiazole-5,2-diyl))bis(2-(6-aminopyridin-2-yl)acetamide)] here?
**A.** < 100 nM

**Q.** For O=C(Cc1cccc(OC(F)(F)F)c1)Nc1nnc([C@H]2CCC[C@H](c3nnc(NC(=O)Cc4cccc(OC(F)(F)F)c4)s3)C2)s1 [Compound 219, N,N′-(5,5′-((1S,3S)-cyclohexane-1,3-diyl)bis(1,3,4-thiadiazole-5,2-diyl))bis(2-(3-(trifluoromethoxy)phenyl)acetamide)], which IC50 is on record?
**A.** 1000 to 2000 nM

**Q.** Which IC50 does the source give for CCN(CC)c1cccc(CC(=O)Nc2nnc([C@H]3CCC[C@H](c4nnc(NC(=O)Cc5cccc(N(CC)CC)c5)s4)C3)s2)c1 [Compound 235, N,N′-(5,5′-((1S,3S)-cyclohexane-1,3-diyl)bis(1,3,4-thiadiazole-5,2-diyl))bis(2-(3-(diethylamino)phenyl)acetamide)] here?
**A.** 500 to 1000 nM

**Q.** Which IC50 does the source give for COc1cccc(CC(=O)Nc2nnc([C@@H]3CC[C@@H](c4nnc(NC(=O)Cc5cccc(OC)c5)s4)C3)s2)c1 [Compound 108] here?
**A.** < 100 nM

**Q.** Nc1ccc(CC(=O)Nc2nnc([C@H]3CCC[C@H](c4nnc(NC(=O)Cc5ccc(N)cc5)s4)C3)s2)cc1 [Compound 239, N,N′-(5,5′-((1S,3S)-cyclohexane-1,3-diyl)bis(1,3,4-thiadiazole-5,2-diyl))bis(2-(4-aminophenyl)acetamide)] was tested. Which IC50 did it give?
**A.** < 100 nM

**Q.** How did the IC50 turn out when NC(=O)c1ccc(CC(=O)Nc2nnc([C@H]3CCC[C@H](c4nnc(NC(=O)Cc5ccc(C(N)=O)cn5)s4)C3)s2)nc1 [Compound 242] was run?
**A.** < 100 nM

**Q.** How did the IC50 turn out when O=C(Cc1ccncn1)Nc1nnc([C@H]2CCC[C@H](c3nnc(NC(=O)Cc4ccncn4)s3)C2)s1 [Compound 230, N,N′-(5,5′-((1S,3S)-cyclohexane-1,3-diyl)bis(1,3,4-thiadiazole-5,2-diyl))bis(2-(pyrimidin-4-yl)acetamide)] was run?
**A.** 1000 to 2000 nM

**Q.** Which IC50 does the source give for O=C(Cc1ccc(N2CC(F)(F)C2)cn1)Nc1nnc([C@H]2CCC[C@H](c3nnc(NC(=O)Cc4ccc(N5CC(F)(F)C5)cn4)s3)C2)s1 [Compound 252, N,N′-(5,5′-((1S,3S)-cyclohexane-1,3-diyl)bis(1,3,4-thiadiazole-5,2-diyl))bis(2-(5-(3,3-difluoroazetidin-1-yl)pyridin-2-yl)acetamide)] here?
**A.** < 100 nM

**Q.** O=C(Cc1cccc2[nH]ccc12)Nc1nnc([C@H]2CCC[C@H](c3nnc(NC(=O)Cc4cccc5[nH]ccc45)s3)C2)s1 [Compound 24, N,N′-(5,5′-((1S,3S)-cyclohexane-1,3-diyl)Obis(1,3,4-thiadiazole-5,2-diyl))bis(2-(1H-indol-4-yl)acetamide)] was tested. Which IC50 did it give?
**A.** < 100 nM

**Q.** CCNc1cccc(CC(=O)Nc2nnc([C@H]3CCC[C@H](c4nnc(NC(=O)Cc5cccc(NCC)c5)s4)C3)s2)c1 [Compound 236, N,N′-(5,5′-((1S,3S)-cyclohexane-1,3-diyl)bis(1,3,4-thiadiazole-5,2-diyl))bis(2-(3-(ethylamino)phenyl)acetamide)] was tested. Which IC50 did it give?
**A.** < 100 nM

**Q.** How did the IC50 turn out when O=C(Cc1ccc(N2CC(F)(F)C2)cc1)Nc1nnc([C@H]2CCC[C@H](c3nnc(NC(=O)Cc4ccc(N5CC(F)(F)C5)cc4)s3)C2)s1 [Compound 266, N,N′-(5,5′-((1S,3S)-cyclohexane-1,3-diyl)bis(1,3,4-thiadiazole-5,2-diyl))bis(2-(4-(3,3-difluoroazetidin-1-yl)phenyl)acetamide)] was run?
**A.** < 100 nM

**Q.** How did the IC50 turn out when CN(C)c1cccc(CC(=O)Nc2nnc([C@H]3CC[C@H](c4nnc(NC(=O)Cc5cccc(N(C)C)n5)s4)C3)s2)n1 [Compound 289, N,N′-(5,5′-((1S,3S)-cyclopentane-1,3-diyl)bis(1,3,4-thiadiazole-5,2-diyl))bis(2-(6-(dimethylamino)pyridin-2-yl)acetamide)] was run?
**A.** 100 to 500 nM

**Q.** For O=C(Cc1cccc(N2CCOCC2)c1)Nc1nnc([C@H]2CCC[C@H](c3nnc(NC(=O)Cc4cccc(N5CCOCC5)c4)s3)C2)s1 [Compound 262, N,N′-(5,5′-((1S,3S)-cyclohexane-1,3-diyl)bis(1,3,4-thiadiazole-5,2-diyl))bis(2-(3-morpholinophenyl)acetamide)], which IC50 is on record?
**A.** < 100 nM

**Q.** O=C(Cc1cccc(N2CC(F)C2)n1)Nc1nnc([C@H]2CCC[C@H](c3nnc(NC(=O)Cc4cccc(N5CC(F)C5)n4)s3)C2)s1 [Compound 251, N,N′-(5,5′-((1S,3S)-cyclohexane-1,3-diyl)bis(1,3,4-thiadiazole-5,2-diyl))bis(2-(6-(3-fluoroazetidin-1-yl)pyridin-2-yl)acetamide)] was tested. Which IC50 did it give?
**A.** < 100 nM

**Q.** For COc1ccc(CC(=O)Nc2nnc(C3CCCCC(c4nnc(NC(=O)Cc5ccc(OC)cc5)s4)C3)s2)cc1 (stereo not shown) [Compound 121], which IC50 is on record?
**A.** 1000 to 2000 nM

**Q.** How did the IC50 turn out when O=C(Cc1cccc(N2CCC2)c1)Nc1nnc([C@H]2CCC[C@H](c3nnc(NC(=O)Cc4cccc(N5CCC5)c4)s3)C2)s1 [Compound 257, N,N′-(5,5′-((1S,3S)-cyclohexane-1,3-diyl)bis(1,3,4-thiadiazole-5,2-diyl))bis(2-(3-(azetidin-1-yl)phenyl)acetamide)] was run?
**A.** < 100 nM

**Q.** Which IC50 does the source give for O=C(Cc1cccc(C2CCNCC2)c1)Nc1nnc([C@H]2CCC[C@H](c3nnc(NC(=O)Cc4cccc(C5CCNCC5)c4)s3)C2)s1 [Compound 272, N,N′-(5,5′-((1S,3S)-cyclohexane-1,3-diyl)bis(1,3,4-thiadiazole-5,2-diyl))bis(2-(3-(piperidin-4-yl)phenyl)acetamide)] here?
**A.** < 100 nM

**Q.** With COc1ccnc(CC(=O)Nc2nnc([C@H]3CCC[C@H](c4nnc(NC(=O)Cc5cc(OC)ccn5)s4)C3)s2)c1 [Compound 223, N,N′-(5,5′-((1S,3S)-cyclohexane-1,3-diyl)bis(1,3,4-thiadiazole-5,2-diyl))bis(2-(4-methoxypyridin-2-yl)acetamide)] as the molecule, how does the IC50 read?
**A.** < 100 nM

**Q.** Which IC50 does the source give for COc1cccc(CC(=O)Nc2nnc([C@@H]3CC[C@H](c4nnc(NC(=O)Cc5cccc(OC)c5)s4)C3)s2)c1 [Compound 107] here?
**A.** 100 to 500 nM

**Q.** Which IC50 does the source give for O=C(Cc1cccs1)Nc1nnc(C[C@H]2C[C@@H]2Cc2nnc(NC(=O)Cc3cccs3)s2)s1 (racemic) [Compound 6, N,N′-(5,5′-(trans-cyclopropane-1,2-diylbis(methylene))bis(1,3,4-thiadiazole-5,2-diyl))bis(2-(thiophen-2-yl)acetamide)] here?
**A.** 100 to 500 nM

**Q.** Which IC50 does the source give for O=C(Cc1cccnn1)Nc1nnc([C@H]2CCC[C@H](c3nnc(NC(=O)Cc4cccnn4)s3)C2)s1 [Compound 231, N,N′-(5,5′-((1S,3S)-cyclohexane-1,3-diyl)bis(1,3,4-thiadiazole-5,2-diyl))bis(2-(pyridazin-3-yl)acetamide)] here?
**A.** 100 to 500 nM

Source: US9029531B2 (Agios Pharmaceuticals, Inc., priority 2012, dated 2015)
